± gives the expanded uncertainty stated by the source.
Conditions: Crystal; DTA

Triple point temperature [K] | SMILES
832 ± 0.6 | [Ag][I] [silver iodide]
1074 ± 0.6 | [Cl-].[Na+] [sodium chloride]
